Test results as given in patent US11154519B2, “Inhibitors and their uses” (MEDICAL RESEARCH COUNCIL, priority 2015, dated 2021).

Key:
HeLa cells = assay: Assay 4: protection of cells from tunicamycin stress (WST-8); assay type: cell-based, human; conditions: Tunicamycin 2.5 μg/ml, 0.2-5 μM compound, 3 days
Protocol: Cells were plated in 24-well plates at a density of 15,000 (HeLa) or 12,000 cells/ml (MEFs) 24 hours prior to treatment. ER stress was elicited by addition of fresh media containing 2.5 μg/ml tunicamycin (Sigma-Aldrich). Compounds of Example 1 were dissolved in DMSO and added as indicated. DMSO was used as a mock treatment. Cell viability was assessed by measuring the reduction of WST-8 [2-(2-methoxy-4-nitrophenyl)-3-(4-nitrophenyl)-5-(2,4-disulfophenyl)-2H-tetrazolium] into formazan using Cell viability Counting Kit-8 (Dojindo) according to the supplier's recommendation, […] after tunicamycin treatment.
Cells where stressed with Tunicamycin (2.5 μg/ml) in the presence of 0.2-5 μM of a compound of Example 1. Cell viability was measured 3 days after treatment.
Cytoprotection against ER stress can be measured by a suitable assay. In this instance, cytoprotection was measured in HeLa cells in which ER stress was elicited by the addition of media containing tunicamycin, a drug that blocks N-glycosylation, thereby preventing protein folding and inducing the unfolded protein response. Cell viability was then detected in the presence and absence of a compound of Example 1 after a set period of time, by measuring the reduction of WST-8 into formazan using the standard cell viability kit Cell Viability Counting Kit-8 from Dojindo. […]

eIF2α phosphorylation = assay: Assay 5: eIF2α phosphorylation during stress-recovery (DTT wash out); assay type: cell-based; conditions: 30 minute 1 mM DTT and wash out, before R15A is expressed
Protocol: HeLa cells were cultured in Dulbecco's Modified Eagle's Media (DMEM) supplemented with penicillin, streptomycin, containing 5% and 10% fetal bovine serum (FBS), respectively. MEF cells were cultured in DMEM supplemented with penicillin, streptomycin, glutamine, 55 μM β-mercaptoethanol, 1× non-essential amino acids (Sigma-Adrich) and 10% FBS. Where indicated, cells were treated with 2.5 μg/ml tunicamycin, 1 mM DTT (Sigma-Adrich) and or the indicated compounds at the indicated concentrations.
(§1) For immunoblots, HeLa cells (80,000 cells/ml) were plated in 12-well plates 24 hours before each experiment. Immediately after the indicated treatments, cells were lysed in 75 μl Laemmli Buffer, boiled at 95° C. for 5 minutes and sonicated. Proteins were separated and analysed as described (Tsaytler et al., Science, 332, 91-94, 2011) with the following antibodies: phospho-elf2α [pS52] and PPP1R15A/GADD34 (10449-1-AP; ProteinTech Group, 1/1000 dilution) and ATF4 (Sc-200 Santa Cruz).
The inventors reasoned that a PPP1R15B inhibitor should prolong eIF2α phosphorylation following stress. […] The inventors took advantage of the fast kinetic and reversibility of stress induction by DTT (Bertolotti et al., Nat. Cell. Biol., 2, 326-332, 2000; Jousse et al., 2003) and monitored eIF2α phosphorylation in cells following a 30 minute treatment with 1 mM DTT and a wash out. […]

[1] = Toxicity in mice (clinical signs, weight); assay type: in vivo; parameters: clinical signs: dose or concentration left out as unconfirmed; conditions: 2 weeks, oral
Protocol: For studying the effect of a compound of Example 1 on weight, C3H/B6 mice were gavaged orally once a day with compounds of Example 1 and mice weight was recorded daily for 2 weeks.
Mice were treated with Example 1 and monitored closely to detect any clinical signs. […] This establishes that PPP1R15B inhibition is not toxic. This was surprising and unanticipated as prior to this study one would have speculated that PPP1R15B inhibitors would be so deleterious that they would have no therapeutic potential.

mice = assay: Side effects of Guanabenz: activity of mice after dosing; assay type: in vivo; conditions: 10 mg/kg oral gavage
Protocol: To assess whether of a compound of Example 1 had the side effects of Guanabenz, mice (n>3) were gavaged orally with 10 mg/kg of compound or Guanabenz. Their activity was monitored 30 minutes following dosing.
In humans, the adrenergic agonist activity of Guanabenz has side effects including drowsiness and coma at high doses (A. H. Hall, Ann Intern Med 102; 787-788; 1985). Due to of these side effects, Guanabenz is no longer used in human. It is anticipated that Guanabenz derivatives have the side effects of Guanabenz, associated with alpha-2 adrenergic activity.

Db/db animals = assay: Blood glucose in obese db/db mice; assay type: in vivo; conditions: 1 mg/kg once a day, three weeks
Protocol: For treatment of a metabolic disorder, Db/db animals (n=5 per condition) were treated once a day with 1 mg/kg of compound of Example 1 for three weeks. Blood glucose levels were measured with a blood glucose meter (DSI) between 9 and 10 am. Data are mean+/−S.e.m.
It is known that metabolic diseases such as diabetes, obesity, fatty liver disease, and atherosclerosis are associated with pathological ER stress and it is believed that pharmacological modulators of the UPR may have therapeutic benefit. As there were no PPP1R15B inhibitors available prior to this study it was unclear whether PPP1R15B could be a therapeutic target in metabolic diseases. […] Having shown in one disease model that treatment with a compound of Example 1 is beneficial, it is evident that the compounds of the invention will be beneficial to other mammalian metabolic disorders such as diabetes, obesity, fatty liver disease, and atherosclerosis.

ATF4 = ATF4 immunoblot in cells; assay type: cell-based, human; conditions: 20 μM; 0, 2, 5, 7.5 h, FIG. 13
Protocol: as §1
Translation can be inhibited at many levels. To ensure that the R15A and B inhibitors are on-target, we monitor the levels of ATF4 in cells treated with compounds. A R15A/B inhibitor persistently induce eIF2α phosphorylation and eIF2α phosphorylation results in ATF4 translation. We show here that an A/B inhibitor indeed induces ATF4, confirming target engagement in cells.

Compound: [H]/N=C(\N)NN=Cc1cccc(Cl)c1Cl [Compound 16, (E)-2-(2,3-dichlorobenzylidene)hydrazine-1-carboximidamide]
- protection of cells from stress (cell viability) (HeLa cells): protects cells from cytotoxic stress caused by tunicamycin
- eIF2α phosphorylation following stress (eIF2α phosphorylation): prolongs eIF2⊐ phosphorylation following stress
- clinical signs [1]: undistinguishable from mice treated with placebo
- weight gain ([1]; up to 10 mg/mg once a day): gained weight normally
- activity of mice 30 minutes following dosing (mice): as active as untreated mice
- blood glucose (Db/db animals): reduced the pathological high blood glucose

Compound: [H]/N=C(\N)NN=Cc1cc(Cl)cc(Cl)c1Cl [Compound 10, (E)-2-(2,3,5-trichlorobenzylidene)hydrazine-1-carboximidamide]
- expression of ATF4 (immunoblot) (ATF4): induces expression of ATF4
